Measured values from patent publication US7906486B2, “Method of treating or preventing tissue deterioration, injury or damage due to disease of mucosa” (SciClone Pharmaceuticals, Inc., priority 2007, dated 2011).
Values joined by “and” are separate entries in the source; they are usually repeats but may differ in a detail not shown here. Equal values may be shown once.

Test system: oral mucositis induced by acute radiation (40 Gy, left buccal cheek pouch)
Experiment: Oral mucositis induced by acute radiation in hamsters, mucositis scoring (Example 2, SCI-02)
Format: in vivo, Syrian Golden Hamsters
Design: key to peak mean mucositis score: 0 = normal to 5 = severe ulceration (visual scale); key to Mucositis score: 0: Pouch completely healthy. No erythema or vasodilation.; 1: Light to severe erythema and vasodilation. No erosion of mucosa.; 2: Severe erythema and vasodilation. Erosion of superficial aspects of mucosa leaving denuded areas. Decreased stippling of mucosa.; 3: Formation of off-white ulcers in one or more places. Ulcers may have a yellow/gray due to pseudomembrane. Cumulative size of ulcers should equal about ¼ of the pouch. Severe erythema and vasodilation.; 4: Cumulative seize of ulcers should equal about ½ of the pouch. Loss of pliability. Severe erythema and vasodilation.; 5: Virtually all of pouch is ulcerated. Loss of pliability (pouch can only partially be extracted from mouth)
Conditions: for % Days >=3 / Days <3 / Days >=3 / Chi Sq v control: sc, days -1 to 20; for Mucositis score: Group 2 (SCV-07 100 μg/kg once daily, days -1 to 20), individual animals, two scores per animal; for Days >=3: animal days with mucositis score of three or more; for Chi Sq v control: days with score >=3
From the text: The acute radiation model in hamsters, developed by the Principle Investigator, has proven to be an accurate, efficient and cost-effective technique to provide a preliminary evaluation of anti-mucositis compounds. The course of mucositis in this model is well defined and results in peak scores approximately 14-16 Days following radiation. The acute model has little systemic toxicity, resulting in few hamster deaths, thus permitting the use of smaller groups (N=7-8) for initial efficacy studies. It has also been used to study specific mechanistic elements in the pathogenesis of mucositis. Molecules that show efficacy in the acute radiation model may be further evaluated in the more complex models of fractionated radiation, chemotherapy, or concomitant therapy.
In this study, an acute radiation dose of 40 Gy on day 0 was administered. Clinically significant mucositis was observed on days 12 through 28.
Forty (40) Syrian Golden Hamsters were given an acute radiation dose of 40 Gy directed to their left buccal cheek pouch on day 0. Test material SCV-07 was given by sub-cutaneous injection at 100 μg/kg or 1 mg/kg once or twice daily. Dosing began one day before radiation (day −1) and continued until day 20. Mucositis was evaluated clinically starting on day 6, and continuing on alternate days until day 28.
The grade of mucositis was scored, beginning day 6, and for every second day thereafter, through and including day 28. The effect on mucositis of each drug treatment compared to placebo was assessed according to the following parameters:
On each evaluation day, the number of animals with a blinded mucositis score of ≧3 in each drug treatment group was compared to the control group. Differences were compared on a cumulative basis and statistical significance was determined by chi-square analysis. Efficacy, in this analysis, is defined by a significant reduction in the number of days that a group of animals had ulcerations (scores ≧3) when compared to the control group. This same test was also used to evaluate differences between different drug treatment groups.
For each evaluation day the scores of the control group were compared to those of the treated groups using non-parametric rank sum analysis. Treatment success was considered as a statistically significant lowering of scores in the treated group on 2 or more days from day 6 to day 28.
Forty Syrian Golden Hamsters were divided into five (5) groups of eight (8) animals each. All animals received a single dose of acute radiation of 40 Gy directed to their left buccal cheek pouch on day 0. This was accomplished by anesthetizing the animals and everting the left buccal pouch, while protecting the rest of the animals with a lead shield. Test materials were given by sub-cutaneous injection once daily as detailed in Table 5. Mucositis was evaluated clinically starting on Day 6, and continuing on alternate days until day 28.
Mucositis was induced using a standardized acute radiation protocol. A single dose of radiation (40 Gy/dose) was administered to all animals on day 0. Radiation was generated with a 160 kilovolt potential (15-ma) source at a focal distance of 30 cm, hardened with a 0.35 mm Cu filtration system. Irradiation targeted the left buccal pouch mucosa at a rate of 3.2 Gy/minute. Prior to irradiation, animals were anesthetized with an intraperitoneal injection of Ketamine (160 mg/kg) and Xylazine (8 mg/kg). The left buccal pouch was everted, fixed and isolated using a lead shield to protect all other parts of the hamster's body.
The mucositis score, weight change and survival were measured throughout the study as described above. For the evaluation of mucositis, the animals were anesthetized with an inhalation anesthetic, and the left pouch everted. Mucositis was scored visually by comparison to a validated photographic scale, ranging from 0 for normal, to 5 for severe ulceration (clinical scoring). In descriptive terms, this scale is defined as follows: […]

[1] = 100 ug/kg once daily from day -1 to 20
[2] = 1 mg/kg once daily from day -1 to 20
[3] = 1 mg/kg twice daily from day -1 to 20

In the case of N[C@H](CCC(=O)N[C@@H](Cc1c[nH]c2ccccc12)C(=O)O)C(=O)O [SCV-07, γ-D-glutamyl-L-tryptophan], the “day of peak mean mucositis score” value [1] is reported as 16, the “peak mean mucositis score” value [1] is reported as 2.2 and the “peak mean mucositis score” value (100 ug/kg twice daily from day -1 to 20) is reported as 2.5. For the same compound, the “% Days >=3” value (100 ug/kg, bid) was 8.9%, the “Days <3” value (100 ug/kg, bid) was 175 and the “% Days >=3” value (100 ug/kg, qd) was 6.3%. For the same compound, the “Days <3” value (100 ug/kg, qd) was 180, the “day of peak mean mucositis score” value [2] was 14 and the “peak mean mucositis score” value [2] was 2.9. For the same compound, the “improvement in daily mucositis scores relative to controls (Mann-Whitney rank sum)” value (1 mg/kg once daily on days -1 to 20, any day of the study) was “no significant improvement in mucositis on any day”, the “day of peak mean mucositis score” value [3] was 14 and the “peak mean mucositis score” value [3] was 2.6. For the same compound, the “% Days >=3” value (1 mg/kg, bid) was 12.5%, the “Days <3” value (1 mg/kg, bid) was 168 and the “% Days >=3” value (1 mg/kg, qd) was 28.1%. For the same compound, the “Days <3” value (1 mg/kg, qd) was 138, the Mucositis score (day 6) was 1 (6×) and 0 (2×) and the Mucositis score (day 8) was 1. For the same compound, the Mucositis score (day 10) was 2 (4×) and 1 (4×), the Mucositis score (day 12) was 2 (7×) and 3 and the Mucositis score (day 14) was 2. The Mucositis score (day 16) was 2, the Mucositis score (day 18) was 2 (5×) and 3 (2×) and 1 and the Mucositis score (day 20) was 2 (6×) and 3 (2×). For the same compound, the Mucositis score (day 22) was 1 (2×) and 2 (7×), the Mucositis score (day 24) was 1 (3×) and 2 (6×) and the Mucositis score (day 26) was 1 (2×) and 2 (7×). For the same compound, the Mucositis score (day 28) was 1 (7×) and 2 (2×), the “Days >=3” value (100 ug/kg, bid) was 17 and the “Days >=3” value (100 ug/kg, qd) was 12. For the same compound, the “Days >=3” value (1 mg/kg, bid) was 24, the “Days >=3” value (1 mg/kg, qd) was 54 and the “P, number of animal days with a score of 3 or higher, 100 ug/kg once daily vs 1 mg/kg twice daily” value (chi-squared test, no statistically significant difference) was 0.054. The “Chi Sq v control” value (100 ug/kg, bid) was 21.4010, the “Chi Sq v control” value (100 ug/kg, qd) was 27.828 and the “Chi Sq v control” value (1 mg/kg, bid) was 12.7360. The “Chi Sq v control” value (1 mg/kg, qd) was 0.0000.
